The data set is described as follows: Human HepG2 cell viability assay in 384 well format. The data set is classed as toxicity, cell-based. The arrangement: dose 125 nL, time 70.5 hour; cytotoxicity at 70.5 h: concentration not given beside the values. To be noted: HepG2 cells, read-out: Inhibition.

For `Cc1nc2c(c(N3CCCC(OCc4ccccn4)C3)n1)CCNCC2` (centres undefined), the cytotoxicity at 70.5 h was -14.9%.
Turning to `CCSCCC(=O)N1CCc2[nH]nc(COc3ccccc3)c2C1`, the cytotoxicity at 70.5 h turned out to be 23.8%.
Then `CCn1cc(CN(C)C(=O)C(c2ccccc2C)N(C)C)cn1` (centres undefined), with -1.5%.
Regarding `COCC(=O)N1CCC(Oc2cccc(C)c2)CC1`, the cytotoxicity at 70.5 h was -16%.
For `CN(CCCO)c1nc(-c2ccc(C(N)=O)cc2)nc2c1CCNC2`, the cytotoxicity at 70.5 h is -13.3%.
The figure for `CCc1csc(CNc2cc(C)nc(-c3cccnc3)n2)n1` is -7.79%.
For the molecule `O=C(CCn1ccccc1=O)N1CCN(Cc2cccc(Cl)c2)CC1`, the cytotoxicity at 70.5 h was -12.6%.
`O=C(NC1CCCCC1)N1CCC(n2cc(-c3ccccn3)nn2)CC1`: the cytotoxicity at 70.5 h is -6.7%.
On to `CC1=CCN(S(=O)(=O)c2cccc(C(=O)N3CCCN(C)CC3)c2)CC1`, for which the cytotoxicity at 70.5 h was -10.6%.
Then `CCn1c(N)nc2cc(C(=O)NCCc3nnc(C)s3)cnc21`, with -24.8%.
For the molecule `CC(=O)N1CCC(N2CCOC(CC3CCCCC3)C2)CC1` (centres undefined), the cytotoxicity at 70.5 h is -4.68%.
Then `CN(C)c1nc2c(c(N3CCc4ccccc4C3)n1)CCNC2`, with 0.802%.
Consider `C=C(C)COc1ccccc1CNCCc1c[nH]cn1`, for which the cytotoxicity at 70.5 h amounted to 2.66%.
`O=C(NCCN1CCc2ccccc21)c1cc(-c2ccc(O)cc2)n[nH]1`: the cytotoxicity at 70.5 h was found to be 46.5%.
As to `COc1ccc(CC2(CO)CCN(c3cc(C#N)ccn3)CC2)cc1`, the cytotoxicity at 70.5 h is -3.42%.
In the case of `CCc1noc(CN(CC)C(=O)c2ccc3ncsc3c2)n1`, the cytotoxicity at 70.5 h was determined as 4.54%.
The figure for `C[C@@H]1CN(C(=O)c2ccc(=O)[nH]c2)CC[C@@]1(O)C1CCOCC1` is 1.36%; for `CCOCCNc1nc(-c2ccncc2)nc2c1CCNCC2` it is -4.23%; for `COc1cccc(Cn2ncc(N(C)CCc3ccccc3)cc2=O)c1` it is -6.35%.
Regarding `Cc1oncc1S(=O)(=O)N1CCCC(C)(Cc2ccc3c(c2)OCO3)C1` (centres undefined), the cytotoxicity at 70.5 h stood at 14.3%.
Then `CC(C)CCC1=NC2(CCN(C(=O)CN3CCCC3=O)CC2)C(=O)N1`, with -5.52%; and `O=S(=O)(CC1CC1)c1ncc(CN2CCSCC2)n1CC1CCCO1` (centres undefined), with -6.13%; and `CCSC(C)c1nc(-c2ccc(C)nn2)no1` (centres undefined), with 4.73%.
The figure for `CN(C)c1nc(NCCCN2CCc3ccccc32)ncc1F` is 38.5%; for `CN(Cc1nc(Cc2cccc(C(F)(F)F)c2)no1)C1CCOCC1` it is -5.63%.
Then `Cc1cc(C)nc(N2CCC(c3nnc(CN(C)C)n3C3CC3)CC2)n1`, with -5.18%; and `CCOc1cc2c(cc1CN1CCC3(CCCNC3=O)C1)CCC2` (centres undefined), with 30%; and `CCCc1cc(NCc2ccc(CO)cc2)n2nccc2n1`, with 1.98%.
For `CCc1c(C)nn(CCN2CC3(CCOC3)CCC2=O)c1C` (centres undefined), the cytotoxicity at 70.5 h is -6.21%.
Then `CCOC(=O)C1CCCN(Cc2c[nH]nc2-c2cc3ccccc3o2)C1` (centres undefined), with 18.3%; and `CCN(C)S(=O)(=O)N1CCCC(CO)(CC=C(C)C)C1` (centres undefined), with -2.99%; and `Cc1noc(-c2ccc(N3CCC(C(=O)N4CCCC4)CC3)nc2)n1`, with -1.82%.
The figure for `O=C1CCCN1CCCC(=O)N1CCCCC1c1ccc(F)cc1` (centres undefined) is 2.07%.
For the molecule `CN1CCN(Cc2noc(-c3cc(-c4ccc(F)cc4)n[nH]3)n2)CC1`, the cytotoxicity at 70.5 h came out at 31.6%.
The figure for `CCc1cnc(C)nc1N1CCS(=O)(=O)CC1` is -7.02%; for `O=C(c1ccc[nH]1)N1CCc2cc(S(=O)(=O)N3CCOCC3)ccc2C1` it is 50.8%.
With `Cc1ccc(C2(O)CCN(C(=O)c3sccc3S(N)(=O)=O)CC2)nc1`, the cytotoxicity at 70.5 h is -4.05%.
Take `CCn1c(C)nnc1SCCNC(=O)c1cccc2ccnn12`: the cytotoxicity at 70.5 h is 14.1%.
In the case of `O=C(c1cnn[nH]1)N(Cc1ccncc1)CC1CCCO1` (centres undefined), the cytotoxicity at 70.5 h is -0.844%.
Consider `O=c1[nH]c(-c2ccc(Cl)cc2)nc2c1CCNC2`, for which the cytotoxicity at 70.5 h was found to be 12.1%.
Then `O=C(C1NCCc2[nH]cnc21)N1CCC2(CC1)CNc1ccccc12` (centres undefined), with -11.9%.
With `CCCC(=O)Nc1cc2c(cc1OC)NC(=O)CC2c1ccc(CC)o1` (centres undefined), the cytotoxicity at 70.5 h worked out at 22.1%.
The figure for `CC(C)c1ccc(CN2CCC(CNS(=O)(=O)C3CC3)C2)cc1` (centres undefined) is -3.87%.
The figure for `COc1cccc2c1OCC(CNC(=O)CN(C)C1CCCC1)C2` (centres undefined) is 6.99%; for `CN(Cc1nc(Cc2ccccc2F)no1)CC1Cc2ccccc2O1` (centres undefined) it is 8.45%.
For `Cn1cc(CN(CC2(O)CNCCOC2)C2CCCCC2)cn1` (centres undefined), the cytotoxicity at 70.5 h is -8.06%.
For the molecule `CN(CC1CCN(c2ccccc2)C1)c1ccc(Cn2ccnc2)cn1` (centres undefined), the cytotoxicity at 70.5 h is -13.6%.
Then `Cc1ccn2cc(C(=O)N3CCCC(Cn4cc(CO)nn4)C3)nc2c1` (centres undefined), with 17.5%; and `CCC1(O)CCCN(c2nc(C(C)(C)C)nc3c2cnn3C)C1` (centres undefined), with -9.12%.
Turning to `COc1cccc(N2CCN(C(=O)C(OC)c3ccccc3)CC2=O)c1` (centres undefined), the cytotoxicity at 70.5 h was -7.1%.
In the case of `CN(Cc1ccccc1)C(=O)CCN1CCC2(CC1)[C@H](O)C[C@@H]2O`, the cytotoxicity at 70.5 h is -8.64%.
The figure for `CCCc1nnc(NCCCn2nc(C)c(Cl)c2C)o1` is -7.76%.
Then `CCn1nc(C)c(CN2CCCC(c3ccc(C(=O)O)cc3)C2)c1C` (centres undefined), with 24.4%.
Then `N[C@H]1CN(C(=O)c2cnc3cc(Cl)ccc3c2O)C[C@@H]1C1CC1`, with 5.93%; and `CC(CN1CCC2(CC1)N=C(c1cccnc1)NC2=O)c1ccccc1` (centres undefined), with -7.3%; and `COC[C@@]12CC[C@@H](N3CCOCC3)C[C@H]1CCN(c1cc(C)ccn1)C2`, with -1.61%.
As to `Cc1cccnc1CC(C)N(C)Cc1cccs1` (centres undefined), the cytotoxicity at 70.5 h is -13.2%.
The figure for `Cn1ccnc1-c1ccc(NCC2COCCO2)nn1` (centres undefined) is -5.53%; for `CN1CCN(CCC(F)(F)C(F)F)CC12CCNC(=O)CC2` (centres undefined) it is 4.17%.
Then `NC1(C(=O)NCCC2CN(Cc3ccco3)CCO2)CCCC1` (centres undefined), with 29.8%; and `Cc1cc(C)c2c(N3CCC(O)(Cn4ccnc4)CC3)ncnc2n1`, with -0.18%; and `O=C(NCC(F)(F)F)C1CCC(=O)N(C2CCCC2)C1` (centres undefined), with -3.8%.
Consider `CNc1ncc(CN(C)C(=O)[C@@]23CNC[C@@H]2CN(C2CCCC2)C3)cn1`, for which the cytotoxicity at 70.5 h was -4.91%.
For the molecule `COc1ccc(F)cc1C(=O)C1CCCN(Cc2ccc(C)s2)C1` (centres undefined), the cytotoxicity at 70.5 h is -12.9%.
The figure for `O=C(NCCN1CCOC1=O)c1ccc2sccc2c1` is -4.67%; for `CC(C)[C@@H](N)C(=O)NCc1cccnc1N1CCc2ccccc2C1` it is -4.97%; for `COc1cccc2c(=O)n(Cc3nc(C)cc(O)n3)cnc12` it is -12.5%.
Then `CC(C)c1ccc(NC2CCCN(Cc3ccncc3)C2)cc1` (centres undefined), with 0.778%.
The figure for `Cc1cc(C)c(C(=O)N2CCOC(CCN(C)C)C2)o1` (centres undefined) is -14.2%; for `Cc1nnsc1C(=O)NCc1cccnc1N(C)C` it is -3.02%.
As to `CCc1c(C)nn(CC(=O)NC(C)c2n[nH]c(C)n2)c1C` (centres undefined), the cytotoxicity at 70.5 h turned out to be 16.1%.
Regarding `COc1ccc(F)c(CN2CCCC3(CCN(S(C)(=O)=O)C3)C2)c1` (centres undefined), the cytotoxicity at 70.5 h is -10.2%.
Then `CCCc1nc(C)cc(N2CCC3(CCC(=O)N(C4CC4)C3)CC2)n1`, with -5.2%; and `CN1CC2(CCN(C(=O)c3ccc(-n4cccn4)cc3Cl)C2)OC1=O` (centres undefined), with -2.7%.
The figure for `CCCc1nc(CNc2nc(C)nc3oc(C)nc23)cs1` is -6.15%; for `CCn1nc(CC(C)C)cc1C(=O)NCC(F)(F)F` it is 12.8%; for `Cc1nccn1CCCN1CCC(c2nccn2CC2CCC2)CC1` it is -3.77%.
Then `Cc1cc(N2CC[C@H](O)C2)n2nc(C)c(C)c2n1`, with -1.97%; and `O=C(Cc1cccc(O)c1)N1CCCC(OCc2cccnc2)C1` (centres undefined), with -7.55%; and `CC(C)N1CCC(CC(=O)NC[C@H]2CCc3ccccc3O2)CC1`, with -11.9%.
In the case of `Cc1nn(C)c2nc(NC3CCNCC3)sc12`, the cytotoxicity at 70.5 h came out at 1.8%.
`CN(CC1COCCO1)c1ncnc2cc(F)ccc12` (centres undefined): the cytotoxicity at 70.5 h came to 19%.
As to `CCCn1ccnc1CNC(=O)C1COc2cc(OC)ccc2C1` (centres undefined), the cytotoxicity at 70.5 h is -5.58%.
Regarding `Cc1nc(CCNC(=O)C2CC(=O)N(C(C)C)C2)sc1C` (centres undefined), the cytotoxicity at 70.5 h is -10.3%.
Then `CCOCCn1c(=O)n(Cc2ccccc2F)c2cc(C(=O)O)cnc21`, with 11.9%; and `Cc1cc(C2CCC2)nc(N(C)Cc2cc(-c3ccccn3)no2)n1`, with -6.04%.
Take `COc1ccc(CN2CCCC2)cc1Oc1cccc(C#N)n1`: the cytotoxicity at 70.5 h was -2.11%.
In the case of `Cc1cc2nc(-c3ccccc3)cc(NCC3CCS(=O)(=O)C3)n2n1` (centres undefined), the cytotoxicity at 70.5 h was found to be 8.05%.
As to `COc1ccc(C(C(=O)O)N2CCC(Cn3cccn3)CC2)c(OC)n1` (centres undefined), the cytotoxicity at 70.5 h was determined as 15.1%.
The figure for `Cc1oc(-c2cc(F)cc(F)c2)nc1CN1C[C@@H](C)NC[C@@H]1C` is -11.7%; for `Cc1ncc(C(=O)N2CC[C@@]3(O)CCN(C4CCCCC4)C[C@H]3C2)cn1` it is -7.37%.
Then `CC(C)c1cncnc1N1CC[C@H](N2CCOCC2)[C@H](CCCO)C1`, with -9.63%; and `CC(C)Cc1cc(C(=O)NCC(O)CN2CCCCCC2)on1` (centres undefined), with -3.2%.
Then `CC[C@@]1(O)CCN(C(=O)CN(C)Cc2ccc(F)cc2)C[C@H]1O`, with 17.3%; and `COc1ccc(-c2nc3c([nH]2)CCNC3C(=O)O)c2ccc(C)nc12` (centres undefined), with 12.4%.
Take `CN1CCCC1CCn1ccnc1-c1nc2ccccc2[nH]1` (centres undefined): the cytotoxicity at 70.5 h was -0.748%.
Then `CCNc1nc(C)c(C(=O)N2CCN(c3ncccc3C)CC2)s1`, with -4.75%; and `O=S(=O)(NCCc1nc(-c2cccnc2)n[nH]1)NCc1ccccc1`, with -7.05%; and `CN1CCCc2c1nc1c(c2N)CCCC1`, with 23%.
